Key:
[1] = Turbidity measurement (LCST/UCST-like behavior, Tt); format: physicochemical; conditions: for Temperature-responsive behavior in turbidity measurement: heating to 90 °C and cooling to 5 °C at 1 °C/min, turbidity at 400 nm; for Tt for the LCST-like behavior: Tt = temperature at half the maximum turbidity, mean ± standard error, at least three measurements
Method: Temperature-responsive properties (LCST/UCST-like behavior and its reversibility) were investigated by using a JASCO V-660 spectral photometer (JASCO, Tokyo, Japan). Each peptide was dissolved in phosphate buffer containing NaCl (pH 7.4, 27.4 mM Na2HPO4, 17.8 mM NaH2PO4, 1 M NaCl). NaCl in this concentration is used as an additive to trigger an LCST-like behavior for the inverse transition cycling (a method to purify a protein exploiting the LCST-like behavior of ELPs).[9] The turbidity at 400 nm of each branched ELP solution was traced while increasing or decreasing the temperature at a rate of 0.5 °C/min, except for samples at 0.5 mM, which were traced at 1 °C/min for heating–cooling cycle measurements. For the samples at 0.5 mM, after heating to 90 °C or cooling to 5 °C, the samples were vortexed to eliminate any possible concentration gradients caused by peptide precipitation and kept at 90 or 5 °C for 30 min before starting the subsequent cooling or heating, respectively. The transition temperature (Tt) for LCST was defined as a temperature at which the turbidity of the solution reaches half the maximum value while increasing the temperature. Measurements were performed at least three times.

[2] = DLS measurement of particle size distribution; format: physicochemical; conditions: peptide 0.5 mM, filtered phosphate buffer pH 7.4 with 1 M NaCl
Method: The particle size distribution of branched ELPs was analyzed in filtered phosphate buffer (pH 7.4, 27.4 mM Na2HPO4, 17.8 mM NaH2PO4) containing 1 M NaCl using DLS with a Zetasizer Nano ZS (Malvern Instruments, Worcestershire, U.K.) DLS analysis was performed at temperatures ranging from 15 to 55 °C with 10 °C intervals for [α-E(F1)]n-F1 and [γ-E(F1)]n-F1 under conditions where the ELPs have Tt values around 30 °C for LCST-like behavior (n = 4, 2.5 mM; n = 5, 1 mM; n = 6, 0.5 mM). Additionally, a solution of [α-E(F1)]5-F1 at 0.5 mM was analyzed at 20, 60, and 90 °C. The measurement duration was selected automatically. The parameter data set “protein” (data set: refractive index, 1.450; absorption, 0.001) was used as the material parameter, and the parameter data set “water” (data set: refractive index, 1.330; viscosity, 0.8872) was chosen as the dispersant parameter. Attenuation was selected automatically.

ThT fluorescence assay = format: physicochemical; conditions: peptide 1 mM; 50 μM ThT; phosphate buffer pH 7.4 with 1 M NaCl; excitation 446 nm, emission 483 nm
Method: A ThT fluorescence assay was conducted using an FP-8500 fluorescence spectrometer (JASCO Co.). The phosphate buffer solutions (pH 7.4, 27.4 mM Na2HPO4, 17.8 mM NaH2PO4) of [α-E(F1)]5-F1 (1 or 0.5 mM) containing 1 M NaCl and 50 μM ThT were prepared. The temperature change rates were the same as those in the turbidity measurements. Using an excitation wavelength of 446 nm, the ThT fluorescence intensities at 483 nm upon temperature changes or over time were recorded.

[3] = CD measurement (aggregation observed in sample); format: physicochemical; conditions: 0.1 mg/mL in filtered phosphate buffer pH 7.4 without NaCl; 10 to 90 °C
Method: CD measurements were carried out using a J-725 spectropolarimeter (JASCO) for [α-E(F1)]5-F1 and [γ-E(F1)]5-F1 in a cuvette with a path length of 1.0 mm. Each peptide was dissolved in filtered phosphate buffer (pH 7.4, 27.4 mM Na2HPO4, and 17.8 mM NaH2PO4) at a concentration of 0.1 mg/mL. […] Spectra were obtained from 190 to 260 nm at temperatures ranging from 10 to 90 °C with 20 °C intervals. Each measurement was performed after 3 min of equilibration at the target temperature. After subtracting the background spectra, Savitzky–Golay filters were applied to smooth all spectra.

[4] = monomeric pentapeptide; cited from earlier work
From the text: Short ELPs with a (VPGVG)n sequence ...

[5] = peptide 0.5 mM, phosphate buffer pH 7.4 with 1 M NaCl
[6] = peptide 0.5 mM, turbidity at 400 nm on heating (1 °C/min for heating-cooling cycle measurements), phosphate buffer pH 7.4 with 1 M NaCl
[7] = peptide 2.5 mM, turbidity at 400 nm on heating 0.5 °C/min, phosphate buffer pH 7.4 with 1 M NaCl
[8] = peptide 1.5 mM, turbidity at 400 nm on heating 0.5 °C/min, phosphate buffer pH 7.4 with 1 M NaCl
[9] = peptide 4 mM, turbidity at 400 nm on heating 0.5 °C/min, phosphate buffer pH 7.4 (27.4 mM Na2HPO4, 17.8 mM NaH2PO4) with 1 M NaCl
[10] = peptide 1 mM, turbidity at 400 nm on heating 0.5 °C/min, phosphate buffer pH 7.4 with 1 M NaCl

| Tt for the LCST-like behavior [1, 6] | Tt for the LCST-like behavior [1, 7] | Tt for the LCST-like behavior [1, 10] | Compound | other results |
| --- | --- | --- | --- | --- |
| 56.92 ± 1.28 °C | 13.86 ± 0.33 °C |  | CC(C)[C@H](NC(=O)CNC(=O)[C@@H]1CCCN1C(=O)[C@H](Cc1ccccc1)NC(=O)CC[C@H](NC(=O)[C@H](CCC(=O)N[C@@H](Cc1ccccc1)C(=O)N1CCC[C@H]1C(=O)NCC(=O)N[C@H](C(=O)NCC(N)=O)C(C)C)NC(=O)[C@H](CCC(=O)N[C@@H](Cc1ccccc1)C(=O)N1CCC[C@H]1C(=O)NCC(=O)N[C@H](C(=O)NCC(N)=O)C(C)C)NC(=O)[C@@H](N)CCC(=O)N[C@@H](Cc1ccccc1)C(=O)N1CCC[C@H]1C(=O)NCC(=O)N[C@H](C(=O)NCC(N)=O)C(C)C)C(=O)N[C@@H](CCC(=O)N[C@@H](Cc1ccccc1)C(=O)N1CCC[C@H]1C(=O)NCC(=O)N[C@H](C(=O)NCC(N)=O)C(C)C)C(=O)N[C@@H](Cc1ccccc1)C(=O)N1CCC[C@H]1C(=O)NCC(=O)N[C@H](C(=O)NCC(N)=O)C(C)C)C(=O)NCC(N)=O [[α-E(F1)]5-F1] | Temperature-responsive behavior in turbidity measurement [1, 5]: both LCST- and UCST-like behavior; Solubility at 90 °C ([1]; peptide 1 mM and 2.5 mM at 90 °C, phosphate buffer pH 7.4 with 1 M NaCl, images of measurement cell): insoluble; Hydrodynamic diameter at 20, 60 and 90 °C [2]: larger hydrodynamic diameters at 60 °C compared to the ones at 20 or 90 °C; ThT fluorescence intensity upon heating (ThT fluorescence assay): sharp increase in fluorescence intensity around Tt; Aggregation behavior in CD sample [3]: apparent aggregation behavior was not observed |
|  | 30.25 ± 0.23 °C |  | CC(C)[C@H](NC(=O)CNC(=O)[C@@H]1CCCN1C(=O)[C@H](Cc1ccccc1)NC(=O)CC[C@H](NC(=O)CC[C@H](NC(=O)CC[C@H](NC(=O)CC[C@H](N)C(=O)N[C@@H](Cc1ccccc1)C(=O)N1CCC[C@H]1C(=O)NCC(=O)N[C@H](C(=O)NCC(N)=O)C(C)C)C(=O)N[C@@H](Cc1ccccc1)C(=O)N1CCC[C@H]1C(=O)NCC(=O)N[C@H](C(=O)NCC(N)=O)C(C)C)C(=O)N[C@@H](Cc1ccccc1)C(=O)N1CCC[C@H]1C(=O)NCC(=O)N[C@H](C(=O)NCC(N)=O)C(C)C)C(=O)N[C@@H](Cc1ccccc1)C(=O)N1CCC[C@H]1C(=O)NCC(=O)N[C@H](C(=O)NCC(N)=O)C(C)C)C(=O)NCC(N)=O [[γ-E(F1)]4-F1] | Tt for the LCST-like behavior [1, 8]: 46.52 ± 0.67 °C; Tt for the LCST-like behavior [1, 9]: 20.75 ± 0.47 °C |
| 33.80 ± 0.38 °C | 7.68 ± 0.80 °C | 19.76 ± 0.97 °C | CC(C)[C@H](NC(=O)CNC(=O)[C@@H]1CCCN1C(=O)[C@H](Cc1ccccc1)NC(=O)CC[C@H](NC(=O)[C@H](CCC(=O)N[C@@H](Cc1ccccc1)C(=O)N1CCC[C@H]1C(=O)NCC(=O)N[C@H](C(=O)NCC(N)=O)C(C)C)NC(=O)[C@H](CCC(=O)N[C@@H](Cc1ccccc1)C(=O)N1CCC[C@H]1C(=O)NCC(=O)N[C@H](C(=O)NCC(N)=O)C(C)C)NC(=O)[C@@H](N)CCC(=O)N[C@@H](Cc1ccccc1)C(=O)N1CCC[C@H]1C(=O)NCC(=O)N[C@H](C(=O)NCC(N)=O)C(C)C)C(=O)N[C@@H](CCC(=O)N[C@@H](Cc1ccccc1)C(=O)N1CCC[C@H]1C(=O)NCC(=O)N[C@H](C(=O)NCC(N)=O)C(C)C)C(=O)N[C@@H](CCC(=O)N[C@@H](Cc1ccccc1)C(=O)N1CCC[C@H]1C(=O)NCC(=O)N[C@H](C(=O)NCC(N)=O)C(C)C)C(=O)N[C@@H](Cc1ccccc1)C(=O)N1CCC[C@H]1C(=O)NCC(=O)N[C@H](C(=O)NCC(N)=O)C(C)C)C(=O)NCC(N)=O [[α-E(F1)]6-F1] |  |
| 34.56 ± 0.48 °C | 8.63 ± 0.31 °C | 23.66 ± 0.06 °C | CC(C)[C@H](NC(=O)CNC(=O)[C@@H]1CCCN1C(=O)[C@H](Cc1ccccc1)NC(=O)CC[C@H](NC(=O)CC[C@H](NC(=O)CC[C@H](NC(=O)CC[C@H](NC(=O)CC[C@H](NC(=O)CC[C@H](N)C(=O)N[C@@H](Cc1ccccc1)C(=O)N1CCC[C@H]1C(=O)NCC(=O)N[C@H](C(=O)NCC(N)=O)C(C)C)C(=O)N[C@@H](Cc1ccccc1)C(=O)N1CCC[C@H]1C(=O)NCC(=O)N[C@H](C(=O)NCC(N)=O)C(C)C)C(=O)N[C@@H](Cc1ccccc1)C(=O)N1CCC[C@H]1C(=O)NCC(=O)N[C@H](C(=O)NCC(N)=O)C(C)C)C(=O)N[C@@H](Cc1ccccc1)C(=O)N1CCC[C@H]1C(=O)NCC(=O)N[C@H](C(=O)NCC(N)=O)C(C)C)C(=O)N[C@@H](Cc1ccccc1)C(=O)N1CCC[C@H]1C(=O)NCC(=O)N[C@H](C(=O)NCC(N)=O)C(C)C)C(=O)N[C@@H](Cc1ccccc1)C(=O)N1CCC[C@H]1C(=O)NCC(=O)N[C@H](C(=O)NCC(N)=O)C(C)C)C(=O)NCC(N)=O [[γ-E(F1)]6-F1] |  |
|  |  |  | H-FPGVG-NH2 [F1, monomeric elastin-like pentapeptide Phe-Pro-Gly-Val-Gly amide] | Coacervation (LCST-like behavior) [4]: did not show coacervation |
|  | 29.98 ± 1.82 °C |  | CC(C)[C@H](NC(=O)CNC(=O)[C@@H]1CCCN1C(=O)[C@H](Cc1ccccc1)NC(=O)CC[C@H](NC(=O)[C@H](CCC(=O)N[C@@H](Cc1ccccc1)C(=O)N1CCC[C@H]1C(=O)NCC(=O)N[C@H](C(=O)NCC(N)=O)C(C)C)NC(=O)[C@@H](N)CCC(=O)N[C@@H](Cc1ccccc1)C(=O)N1CCC[C@H]1C(=O)NCC(=O)N[C@H](C(=O)NCC(N)=O)C(C)C)C(=O)N[C@@H](CCC(=O)N[C@@H](Cc1ccccc1)C(=O)N1CCC[C@H]1C(=O)NCC(=O)N[C@H](C(=O)NCC(N)=O)C(C)C)C(=O)N[C@@H](Cc1ccccc1)C(=O)N1CCC[C@H]1C(=O)NCC(=O)N[C@H](C(=O)NCC(N)=O)C(C)C)C(=O)NCC(N)=O [[α-E(F1)]4-F1] | Tt for the LCST-like behavior [1, 8]: 47.04 ± 0.81 °C; Tt for the LCST-like behavior [1, 9]: 21.12 ± 1.68 °C |
| 61.87 ± 0.60 °C | 17.38 ± 0.10 °C | 34.73 ± 0.52 °C | CC(C)[C@H](NC(=O)CNC(=O)[C@@H]1CCCN1C(=O)[C@H](Cc1ccccc1)NC(=O)CC[C@H](NC(=O)CC[C@H](NC(=O)CC[C@H](NC(=O)CC[C@H](NC(=O)CC[C@H](N)C(=O)N[C@@H](Cc1ccccc1)C(=O)N1CCC[C@H]1C(=O)NCC(=O)N[C@H](C(=O)NCC(N)=O)C(C)C)C(=O)N[C@@H](Cc1ccccc1)C(=O)N1CCC[C@H]1C(=O)NCC(=O)N[C@H](C(=O)NCC(N)=O)C(C)C)C(=O)N[C@@H](Cc1ccccc1)C(=O)N1CCC[C@H]1C(=O)NCC(=O)N[C@H](C(=O)NCC(N)=O)C(C)C)C(=O)N[C@@H](Cc1ccccc1)C(=O)N1CCC[C@H]1C(=O)NCC(=O)N[C@H](C(=O)NCC(N)=O)C(C)C)C(=O)N[C@@H](Cc1ccccc1)C(=O)N1CCC[C@H]1C(=O)NCC(=O)N[C@H](C(=O)NCC(N)=O)C(C)C)C(=O)NCC(N)=O [[γ-E(F1)]5-F1] | Temperature-responsive behavior in turbidity measurement [1, 5]: both LCST- and UCST-like behavior; Aggregation behavior in CD sample [3]: apparent aggregation behavior was not observed |

Source: PMC11558673, “Exploring LCST- and UCST-like Behavior of Branched Molecules Bearing Repeat Units of Elastin-like Peptides as Side Components” (Biomacromolecules, 2024)
